According to a melting point compilation (Tetko et al.; mined from patent text by program, amines drawn as free bases though some values may be those of a salt):

melting point [°C] | SMILES
48 to 51 | Cc1[nH]cnc1CSCCN=CNS(=O)(=O)c1ccccc1
82 to 84 | CC(C)(C)c1ccc2c(c1)[C@H]1Cc3ccccc3[C@@]1(C)N2 (relative stereo)
173 | CC(C)c1ccc(N(Cc2cnn(C3CCCC3)c2)C(=O)C2CCCc3c(O)cccc32)cc1 (configuration not stated)
190 to 191 | COc1ccc(N2CCN(S(=O)(=O)[C@H](C)[C@](O)(Cn3cncn3)c3ccc(F)cc3F)CC2)cc1
203 to 205 | NS(=O)(=O)Cc1ccc2oc([N+](=O)[O-])c(-c3ccccc3)c2c1
115 to 117 | Clc1ccc(-c2cc(-c3ccccc3)c(-c3ccccc3)s2)cc1
100 to 102 | CCC(O)(CC)CC/C=C(\C)c1ccc(COc2ccc(CO)c(CO)c2)s1
183 to 185 | CC(=O)Oc1cc(C=CC(=O)c2ccccc2)cc([N+](=O)[O-])c1OC(C)=O
165 to 166 | CCCCCOc1cc(C(=O)O)c2c(c1)C(=O)CC2
115 to 119 | Cc1cn(N)c(=O)n1C
228 to 230 | CCc1nc2c(N)nc(C)c(C)c2n1CCCC(N)=O
154 to 155 | CCOC(=O)c1c[nH]cc1-c1ccc(C)cc1
129 to 131 | Fc1ccccc1-n1c(CN2CCOCC2)nnc1-c1ccc(-c2ccccc2)cc1
207 to 209 | O=C(Nc1ccc(NS(=O)(=O)c2ccc(Cl)c(Cl)c2)cc1)Nc1ccc([N+](=O)[O-])cc1
213 to 215 | O=Cc1cc(-c2ccccc2)c(=O)n2c1-c1sccc1CC2
133 | C#CCN(c1ccc(C(=O)O)cc1)C1CCc2cc3nc(COC(=O)C(C)(C)C)[nH]c(=O)c3cc21 (racemic)
77 to 78 | COc1ccc(CNc2cc(OC)c(OC)c(OC)c2)cc1
197 to 200 | CS(=O)(=O)NCCCC1COCc2nc3c(N)nc4c(c3n21)CCCC4 (configuration not stated)
189 | CCOc1ccc(C2(O)CCN(CC(O)c3ccc(O)c(C)c3)CC2)cn1 (configuration not stated)
126 to 129 | CCCCc1cc(NN)n2nccc2n1
110 to 112 | COC(=O)C1CCSSC(C)(C)C(=O)N1 (configuration not stated)
66 to 68 | Cc1nc(CSc2cccc(Cl)c2Cl)no1
62 to 64 | CNC(=O)NC(=O)C(CC1CCCC1O)c1ccc(Cl)c(Cl)c1 (configuration not stated)
61 to 64 | CSc1c(C)c(-c2ncc(Cl)cc2F)nn1C

melting point [°C] | SMILES
90 to 93 | COC(=O)C1=C(C)NC(C)=C(C(=O)OCCN2CCN(C(c3ccc(F)cc3)c3ccc(F)cc3)CC2)C1c1ccccc1[N+](=O)[O-] (configuration not stated)
> 300 | O=C(CCN1CCN(Cc2ccccc2)CC1)c1ccc2[nH]c(=O)oc2c1
242 to 245 | COc1cccc2c1C(NC(C)=O)=NS2(=O)=O
> 250 | Nc1c(C(=O)O)c(=O)[nH]c2ccccc12
78 to 80 | CCCN(C1CC(C)(C)Oc2ccc(OCCOC)cc21)S(=O)(=O)CC (configuration not stated)
156 | Nc1cccc(NC(=O)c2ccc(CNC(=O)OCc3cccnc3)cc2)c1
198 to 199 | CSc1ccc(-c2csc3ccc(-c4nnc(C)o4)cc23)cc1
227 to 229 | O=C(Nc1cccc(S(=O)(=O)N2CCCC2CO)c1)c1cnn2c(C(F)(F)F)cc(-c3ccc(Cl)cc3)nc12 (configuration not stated)
84 to 84.5 | COc1cc(OC)cc(-c2ncn(-c3ccc(C(F)(F)F)cc3)c2-c2ccc(N(C)C)cc2)c1
99 | CC(C)(C(N)=O)/C(F)=C(/F)c1ccc(Cl)cc1
209 to 210 | CC[C@@]12C[C@H](N)[C@](O)(c3ccccc3)C[C@H]1CCc1cc(O)ccc12
342 to 343 | O=c1c2ccc(Cl)cc2[nH]c2c(=O)n(-c3ccc(Cl)cc3Cl)nc(O)c12
120 to 121 | CCCC[C@H](NC(=O)CC[C@H](C)CNC(=O)COc1ccccc1)C(=O)CS(=O)(=O)Cc1ccco1
102 to 103 | CC(C)c1nn(-c2ccc(C(F)(F)F)cn2)cc1CCCOc1cccc(CCC(=O)O)c1
65.1 | C#CCOc1cc(-c2ccccc2)ncn1
285 to 290 | NS(=O)(=O)c1ccc2[nH]cc(CCN3C(=O)c4ccccc4C3=O)c2c1
202 to 203 | CN(C1CCN(CCC(F)(F)F)CC1)S(=O)(=O)c1ccc(Nc2nccc(Nc3ccc(F)c(F)c3)n2)cc1
301 to 303 | CC(O)CCCOc1ccc2nc3[nH]c(=O)[nH]c3cc2c1 (configuration not stated)
204 to 206 | CC(=O)N1C(=O)c2cccnc2N(C2CC2)c2nc(Cl)cc(C)c21
86 | CC(C)(C)c1cc(SCCOCC(=O)O)cc(C(C)(C)C)c1O
211 to 213 | COc1ccc2c(c1)NC1(CCN(C(C)=O)CC1)c1cccn1-2
126 to 128 | CN(CC(=O)Nc1ccc(Cl)cc1)C(=O)OC(C)(C)C
98 to 100 | CCC(=C(c1ccc(I)cc1)c1ccc(OCCCCl)cc1)c1ccccc1
195 | COc1ccc(Cn2c(=O)c(C#N)c(Cl)c3cc(F)cnc32)cc1

melting point [°C] | SMILES
203 to 204 | CCOC(=O)CNc1ccc2c3c(n(CCCNC(=O)OC(C)(C)C)c(=O)c2c1)-c1ccccc1C3=O
166 to 169 | CCC(=O)N1CCC(=NO)c2cc(Cl)ccc21
154 to 155 | CCCCc1c(C(=O)O)ccc2c(OC)cccc12
129 to 131 | C[Si](C)(C)c1cccc(Cl)c1C(=O)O
> 250 | CC(C)c1c(Cl)sc2[nH]c(=O)c(=O)[nH]c12
198 to 199 | COc1ccc(C(C)(C)C)c(O)c1C(=O)Nc1ccc(S(=O)(=O)C(F)(F)F)cc1Cl
138 to 140 | O=C(C[C@H](C(=O)N[C@H](COC(=O)OCc1ccccc1)c1ccccc1)n1ccc(-c2ccc(-c3ccncc3)cc2)c1)OCc1ccccc1
234 to 236 | C[C@@H]1CN(c2c(F)c(N)c3c(=O)c(C(=O)O)cn(C4CC4)c3c2F)C[C@H]1N (relative stereo)
110 to 112 | CN(C)c1cccc(C(=O)N2CCN(CCc3ccc(Cl)cc3)CC2)c1
72 to 74 | CN(C)C=CC(=O)CC(C)(C)C
203 to 205 | CC(C)(C)OC(=O)NCCC(=O)NCc1cccc2c1CN(C1CCC(=O)NC1=O)C2=O (configuration not stated)
238 to 240 | COc1cc2c(c(N)c1OC)C(=O)C(=Cc1cc(C)c(O)c(C)c1)C2
151 to 152 | CC1(C)CC(=O)CC(C)(C)N1CCCCCCN1C(C)(C)CC(=O)CC1(C)C
187 to 190 | CN(C)CCCN(C)C(=O)C(Cc1ccccc1)NC(=O)c1cc2cc(Cl)ccc2[nH]1 (configuration not stated)
80 to 81 | COc1ccc(OCC2(CO)CC2)cc1
143 to 145 | O=C(C=Cc1cccnc1)NCCCCC1CCN(C(c2ccccc2)C2CCCCC2)CC1 (configuration not stated)
147 to 149 | O=C(O)Cc1ccc2ncsc2c1
63 to 66 | C=C[C@]1(C)CCc2c(C)c(OCc3ccccc3)c(C)c(C)c2O1
194 to 195 | CC(C)(Cc1ccccc1)C(NC(=O)c1ccc(Cl)cc1)Nc1c(Nc2cncc(C(F)(F)F)c2)c(=O)c1=O (configuration not stated)
209 to 210 | CCOC(=O)c1cnc2n(c1=O)C(C)CCC2=NNC(=O)c1ccccc1 (configuration not stated)
227 to 229 | Cn1cnc2c1ccn1c(=O)c(-c3ccc(OCc4ccccc4)cc3)cc(C(=O)O)c21
166 to 168 | CC(c1oc2ccccc2c(=O)c1-c1cccc(F)c1)n1ccc2ncnc(Cl)c21 (configuration not stated)
176 to 177 | NC(=O)CNC(=O)c1cncc(-c2cccc3cc(Cc4cc(F)cc(Cl)c4)sc23)c1
96 to 98 | CCNC(=O)c1c([Si](C)(C)C)ccc(Cl)c1Cl

melting point [°C] | SMILES
95 to 101 | CC1(C)C=Cc2c(ccc3c2OCC2(O)c4ccc(O)cc4OC32)O1 (single isomer, unassigned; (-))
184 to 186 | CC(=O)C1=C(O)C(=C(C)Nc2ccccc2)C(=O)OC1=O
93 to 94 | CC(C)OP(=O)(OCN1C(=O)c2c(C(C)C)cc(OCC(=O)OCc3ccccc3)cc2S1(=O)=O)OC(C)C
118 to 120 | CC(=O)NC(CCc1ccc(C(O)CCCCCc2ccccc2)cc1)(CO[Si](C)(C)C(C)(C)C)CO[Si](C)(C)C(C)(C)C (configuration not stated)
158 | CCOc1ccc2c(c1)n(C(C)(C)CC(C)(C)C)c(=O)n2S(=O)(=O)c1ccc([N+](=O)[O-])cc1OC
102 to 104 | CC1(C)OC(=O)C(C(=O)Cc2cc(F)c(F)cc2F)C(=O)O1
144 to 146 | CC(c1ccc(-c2ccccc2F)cc1)S(=O)(=O)CC(=O)O (configuration not stated)
45.5 to 46.5 | O=C(OC1CCCC1)c1ccc([N+](=O)[O-])c(OC2CCCC2)c1
70 to 73 | C#CCC(Oc1cccc(C)c1C)C1=NCCN1 (configuration not stated)
213 to 215 | CCOCc1nc2c(N)nc3cc(-c4cccnc4)ccc3c2n1CCNC(=O)C(C)C
191 to 193 | COc1cc(OC)cc(N2CCN(C(=O)Nc3cc4ccccc4cc3OC)CC2)c1
164 to 167 | CON=Cc1ccc(-c2cc(F)cc(F)c2NC(=O)c2c(C)nn(C)c2F)cc1
150 | CO[C@@H]1CN(CCCn2nc(Cl)ccc2=O)CC[C@@H]1NC(=O)c1cc(Cl)c(N)c2c1OCCC2 (relative stereo)
246 to 248 | Nc1nc(N)nc(C2CCN(C(=O)c3ccccc3)CC2)n1
194 to 196 | COc1ccc2nc3ccc(C(C)=O)cn3c(=O)c2c1
167 to 168 | COC(=O)c1ccccc1CS(=O)(=O)NC(=S)Nc1nc(OC)cc(OC)n1
145 to 147 | CCCCCN1C(=O)C(NC(=O)OC(C)(C)C)c2ccccc21 (configuration not stated)
131 to 132 | CCC12CCC3c4ccc(OC)cc4CCC3C1CCC2OCCO (configuration not stated)
259 to 260 | O=C(O)CCCOc1cccc(CNC(=O)c2nc3ccccc3c(=O)[nH]2)c1
249 | Cc1nc(N)nc(N)c1N=Nc1cccc(Cl)c1
135 to 137 | CC(C)(c1ccc([N+](=O)[O-])cc1)c1ccc([N+](=O)[O-])cc1
123 | COC(=O)CCCc1cc2nc(Cl)ccc2n1S(=O)(=O)c1ccc2c(c1)CCN2C(C)=O

SMILES | melting point [°C]
CC(C)SN(c1ccccc1)P(=O)(c1ccccc1)c1ccccc1 | 148 to 150
CCCCCCC(C)(C)c1ccc(C2=CCCNC2)c(O)c1 | 122 to 123
O=C1c2cc(Cl)ccc2CC1Br (configuration not stated) | 84 to 87
